# Assay results taken from patent US10335409B2 (priority 2012, dated 2019).
# Like-named read-outs stand apart in the source and are kept apart here.
# Legend:
# [1] = system: genotype 1a NS3/4a protease inhibitor resistant variant R155K transient HCV replicon in Huh-7-derived cells; experiment: Transient-transfected HCV replicon EC50, genotype 1a R155K; format: cell-based, hepatitis C virus; details: 72 h
# [2] = system: genotype 1b (Con1) stable HCV replicon in Huh-7-derived cells; experiment: Stable subgenomic HCV replicon EC50, genotype 1b (Renilla luciferase); format: cell-based, hepatitis C virus; details: stable replicon genotype 1b, 72 h, read-out: EC50 1B RLUC
# Procedure, shortened: (§1)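 Compounds, three-fold diluted, were applied to Huh-7-derived cells harbouring luciferase replicons (genotype 1a H77, 1b Con1, 2a JFH-1, 4a ED43, with strain-specific adaptive mutations). Seventy-two hours later, intracellular replication was gauged by Renilla luciferase activity and EC50 derived by regression.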
# [3] = system: genotype 4a (ED43) stable HCV replicon in Huh-7-derived cells; experiment: Stable subgenomic HCV replicon EC50, genotype 4a (Renilla luciferase); format: cell-based, hepatitis C virus; details: 72 h, read-out: EC50 4A RLUC
# Procedure, shortened: as §1
# [4] = system: genotype 1a (H77) stable HCV replicon in Huh-7-derived cells; experiment: Stable subgenomic HCV replicon EC50, genotype 1a (Renilla luciferase); format: cell-based, hepatitis C virus; details: stable replicon genotype 1a, 72 h, read-out: EC50 1A RLUC
# Procedure, shortened: as §1
# [5] = system: genotype 3a (S52) stable HCV replicon in Huh-7-derived cells; experiment: Stable subgenomic HCV replicon EC50, genotype 3a (Renilla luciferase); format: cell-based, hepatitis C virus; details: 72 h, read-out: EC50 3A RLUC
# [6] = system: genotype 1b NS3/4a protease inhibitor resistant variant D168A transient HCV replicon in Huh-7-derived cells; experiment: Transient-transfected HCV replicon EC50, genotype 1b D168A; format: cell-based, hepatitis C virus; details: 72 h
# [7] = system: genotype 2a (JFH-1) stable HCV replicon in Huh-7-derived cells; experiment: Stable subgenomic HCV replicon EC50, genotype 2a (Renilla luciferase); format: cell-based, hepatitis C virus; details: stable replicon genotype 2a, 72 h, read-out: EC50 2A RLUC
# Procedure, shortened: as §1
# [8] = molecular target: HCV NS3 protease domain genotype 3a (Hepatitis C virus genotype 3a, UniProt Q81258); experiment: Ki determination, NS3 protease genotype 3a (fluorogenic depsipeptide substrate); format: biochemical; details: 200 pM enzyme, NS4A peptide
# Chain of HCV NS3 protease domain genotype 3a (Q81258 whole entry, looked up, the tested form may be a part): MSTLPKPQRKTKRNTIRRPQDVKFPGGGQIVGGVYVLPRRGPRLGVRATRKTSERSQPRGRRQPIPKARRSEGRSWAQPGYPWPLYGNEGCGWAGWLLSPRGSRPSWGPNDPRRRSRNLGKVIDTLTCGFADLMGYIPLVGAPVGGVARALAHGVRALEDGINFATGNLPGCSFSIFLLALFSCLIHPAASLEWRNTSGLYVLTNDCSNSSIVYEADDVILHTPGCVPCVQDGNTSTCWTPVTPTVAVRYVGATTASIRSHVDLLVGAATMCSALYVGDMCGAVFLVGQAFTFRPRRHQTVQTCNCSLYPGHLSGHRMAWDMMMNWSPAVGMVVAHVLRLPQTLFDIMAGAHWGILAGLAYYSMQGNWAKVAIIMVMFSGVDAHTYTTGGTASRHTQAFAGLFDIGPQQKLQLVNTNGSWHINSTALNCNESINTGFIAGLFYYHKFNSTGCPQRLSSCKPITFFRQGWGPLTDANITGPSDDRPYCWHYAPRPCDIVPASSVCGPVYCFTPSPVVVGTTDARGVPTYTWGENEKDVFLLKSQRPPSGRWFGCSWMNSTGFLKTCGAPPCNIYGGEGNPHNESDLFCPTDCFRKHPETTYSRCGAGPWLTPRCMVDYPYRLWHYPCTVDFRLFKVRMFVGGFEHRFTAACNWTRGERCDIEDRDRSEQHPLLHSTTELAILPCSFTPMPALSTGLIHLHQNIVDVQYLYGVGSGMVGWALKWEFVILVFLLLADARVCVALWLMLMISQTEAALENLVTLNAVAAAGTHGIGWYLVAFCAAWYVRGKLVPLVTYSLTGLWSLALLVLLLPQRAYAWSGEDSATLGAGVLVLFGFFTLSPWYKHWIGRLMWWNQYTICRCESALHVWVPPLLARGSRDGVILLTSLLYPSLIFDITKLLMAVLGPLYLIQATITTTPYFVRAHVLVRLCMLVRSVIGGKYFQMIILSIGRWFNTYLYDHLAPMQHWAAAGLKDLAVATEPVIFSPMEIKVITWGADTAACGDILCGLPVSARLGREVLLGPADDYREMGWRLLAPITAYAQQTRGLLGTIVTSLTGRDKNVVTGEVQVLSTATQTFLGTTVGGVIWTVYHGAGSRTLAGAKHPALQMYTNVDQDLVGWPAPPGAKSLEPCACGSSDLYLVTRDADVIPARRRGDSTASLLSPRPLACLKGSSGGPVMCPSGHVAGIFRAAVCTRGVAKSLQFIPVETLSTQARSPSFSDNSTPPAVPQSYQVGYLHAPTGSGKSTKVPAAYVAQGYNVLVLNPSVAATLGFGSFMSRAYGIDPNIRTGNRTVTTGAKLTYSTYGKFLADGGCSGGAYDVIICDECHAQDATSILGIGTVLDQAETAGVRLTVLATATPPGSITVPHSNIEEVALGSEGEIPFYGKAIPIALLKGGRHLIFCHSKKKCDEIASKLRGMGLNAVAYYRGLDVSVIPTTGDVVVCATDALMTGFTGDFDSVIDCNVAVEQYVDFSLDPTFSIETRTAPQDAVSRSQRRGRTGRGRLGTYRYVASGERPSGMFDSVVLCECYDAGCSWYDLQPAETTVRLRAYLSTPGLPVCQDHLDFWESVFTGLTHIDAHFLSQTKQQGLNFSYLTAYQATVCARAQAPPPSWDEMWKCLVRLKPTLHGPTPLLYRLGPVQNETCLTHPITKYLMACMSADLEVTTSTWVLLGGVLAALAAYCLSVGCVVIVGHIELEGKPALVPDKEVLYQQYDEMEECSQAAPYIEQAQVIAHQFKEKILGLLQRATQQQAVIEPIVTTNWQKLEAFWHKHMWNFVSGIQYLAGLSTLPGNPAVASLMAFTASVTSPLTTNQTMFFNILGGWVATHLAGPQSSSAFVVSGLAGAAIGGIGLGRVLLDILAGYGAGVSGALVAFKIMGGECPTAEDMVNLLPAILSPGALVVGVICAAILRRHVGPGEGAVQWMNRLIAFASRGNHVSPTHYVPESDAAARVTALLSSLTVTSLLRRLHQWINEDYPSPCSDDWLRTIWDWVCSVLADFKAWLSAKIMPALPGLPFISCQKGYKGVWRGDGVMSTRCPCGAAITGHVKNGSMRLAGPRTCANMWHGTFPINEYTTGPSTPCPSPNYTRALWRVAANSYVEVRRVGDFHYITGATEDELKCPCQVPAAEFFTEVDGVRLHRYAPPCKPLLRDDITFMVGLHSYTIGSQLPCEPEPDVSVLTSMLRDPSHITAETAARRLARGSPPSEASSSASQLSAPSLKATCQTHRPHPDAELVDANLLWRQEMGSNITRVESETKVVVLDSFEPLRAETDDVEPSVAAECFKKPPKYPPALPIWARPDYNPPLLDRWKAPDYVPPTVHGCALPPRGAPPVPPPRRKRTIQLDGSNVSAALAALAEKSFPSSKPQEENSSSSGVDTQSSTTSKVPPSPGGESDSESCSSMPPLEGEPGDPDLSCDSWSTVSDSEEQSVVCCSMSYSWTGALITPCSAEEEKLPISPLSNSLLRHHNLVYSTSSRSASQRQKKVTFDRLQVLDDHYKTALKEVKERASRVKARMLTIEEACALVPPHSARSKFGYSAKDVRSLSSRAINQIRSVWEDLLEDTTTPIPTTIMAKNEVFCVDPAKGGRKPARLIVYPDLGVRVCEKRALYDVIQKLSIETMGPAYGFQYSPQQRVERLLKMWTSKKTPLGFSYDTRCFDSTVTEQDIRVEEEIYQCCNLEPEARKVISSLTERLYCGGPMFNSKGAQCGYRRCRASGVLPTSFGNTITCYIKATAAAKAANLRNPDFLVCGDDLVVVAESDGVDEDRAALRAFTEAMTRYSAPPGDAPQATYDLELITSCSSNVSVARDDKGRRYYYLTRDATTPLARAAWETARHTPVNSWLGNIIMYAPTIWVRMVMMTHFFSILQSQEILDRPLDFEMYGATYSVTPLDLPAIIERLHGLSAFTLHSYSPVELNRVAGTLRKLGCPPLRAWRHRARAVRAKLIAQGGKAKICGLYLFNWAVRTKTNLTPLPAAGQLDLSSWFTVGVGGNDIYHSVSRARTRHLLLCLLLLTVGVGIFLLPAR
# Description: Purified NS3 protease domain (amino acids 1-181) of the genotype 1b and 3a virus were generated as above. The internally quenched fluorogenic depsipeptide substrate Ac-DED(Edans)-EEAbuΨ[COO]ASK(Dabcyl)-NH2 and a synthetic peptide containing the hydrophobic core residues of the NS4A protein cofactor ([…]; NS4A peptide) were obtained from Anaspec, Inc. (San Jose, Calif.). Other chemicals and biochemicals were of reagent grade or better and were purchased from standard suppliers.
# Reactions were run at room temperature in buffer consisting of 50 mM HEPES, 40% glycerol, 0.05% Triton X-100, 10 mM DTT, and 10% DMSO. The final assay solutions contained 50 pM NS3 genotype 1 b protease or 200 pM genotype 3a protease, 20 μM NS4A peptide, and 4 μM substrate (genotype 1b) or 2 μM substrate (genotype 3a). Inhibitor concentrations varied from 100 nM to 5 pM in 3-fold dilutions, and no-inhibitor controls were included.
# Compound dilutions were made in DMSO at 20× final concentration. Reaction mixtures were prepared in 96-well assay plates. A solution of enzyme and NS4A peptide in assay buffer (25 μL volume with both reagents at 4× final concentration) was mixed with 45 μL assay buffer and 5 μL of either inhibitor or DMSO, and pre-incubated at room temperature for 1 hour. The reaction was started by addition of 25 μL substrate solution at 4× final concentration. Plates were mixed vigorously for 5-10 seconds and reactions were allowed to proceed for 90 minutes, fluorescence was measured every 30 s between 90 and 120 minutes reaction time using a Tecan InfiniTe M1000 or PerkinElmer Envision multimode plate reader with an excitation wavelength of 340 nm and an emission wavelength of 490 nm.
# Rates were calculated from the progress curves at steady state, in the time frame of 90-120 minutes after addition of substrate. To determine the Ki, rates were plotted as a function of inhibitor concentration, and the data were fit with equation 1 (Morrison, J. F., Biochimica et Biophysica Acta 1969, 185, 269-286) to calculate Ki^app using GraphPad Prism 5. Active fraction of enzyme was determined by active site titration with known potent inhibitors. Ki was calculated from Ki^app/(1+[[S]/Km]).
# [9] = system: genotype 3a (S52) wild type transient HCV replicon in Huh-7-derived cells; experiment: Transient-transfected HCV replicon EC50, genotype 3a wild type; format: cell-based, hepatitis C virus; details: Hepatitis C virus; transient-transfected replicon genotype 3a wild type, 72 h; read-out: EC50 3A WT
# [10] = system: genotype 1a (H77) wild type transient HCV replicon in Huh-7-derived cells; experiment: Transient-transfected HCV replicon EC50, genotype 1a wild type; format: cell-based, hepatitis C virus; details: 72 h, transient-transfected replicon genotype 1a wild type, read-out: EC50 1A WT
# [11] = system: genotype 1b (Con1) wild type transient HCV replicon in Huh-7-derived cells; experiment: Transient-transfected HCV replicon EC50, genotype 1b wild type; format: cell-based, hepatitis C virus; details: 72 h, transient-transfected replicon genotype 1b wild type, read-out: EC50 1B WT
# [12] = Hepatitis C virus, read-out: EC50 1A R155K, transient-transfected replicon genotype 1a R155K resistant variant, 72 h
# [13] = Hepatitis C virus, read-out: EC50 1B D168A, transient-transfected replicon genotype 1b D168A resistant variant, 72 h
# [14] = transient-transfected replicon genotype 1a R155K resistant variant, read-out: EC50 1A R155K
# [15] = stable replicon genotype 4a, Renilla luciferase
# [16] = stable replicon genotype 3a, Renilla luciferase
# [17] = transient-transfected replicon genotype 1b D168A resistant variant, read-out: EC50 1B D168A
SMILES,"EC50 [1, 12]",EC50 ([2]; Hepatitis C virus),EC50 ([3]; Hepatitis C virus),EC50 ([4]; Hepatitis C virus),EC50 ([5]; Hepatitis C virus),"EC50 [6, 13]",EC50 ([7]; Hepatitis C virus),Ki [8],EC50 [9],EC50 ([10]; Hepatitis C virus),EC50 ([11]; Hepatitis C virus),"EC50 [1, 14]",EC50 [2],"EC50 [3, 15]",EC50 [4],"EC50 [5, 16]","EC50 [6, 17]",EC50 [7],EC50 [10],EC50 [11],other results
"COc1ccc2nc3c(nc2c1)O[C@H]1CN(C(=O)[C@H](C(C)(C)C)NC(=O)O[C@@H]2C[C@H]2CCCCC3(F)F)[C@H](C(=O)N[C@]2(C(=O)NS(=O)(=O)C3(C)CC3)C[C@H]2C(F)F)[C@@H]1C [Example 46, (1aR,5S,8S,9S,10R,22aR)-5-tert-butyl-N-[(1R,2R)-2-(difluoromethyl)-1-{[(1-methylcyclopropyl)sulfonyl]carbamoyl}cyclopropyl]-18,18-difluoro-14-methoxy-9-methyl-3,6-dioxo-1,1a,3,4,5,6,9,10,18,19,20,21,22,22a-tetradecahydro-8H-7,10-methanocyclopropa[18,19][1,10,3,6]dioxadiazacyclononadecino[11,12-b]quinoxaline-8-carboxamide]",3.2 nM,2.7 nM,2.5 nM,3.1 nM,17 nM,4.5 nM,3.8 nM,0.05 nM,6.79 nM,2.4 nM,1.2 nM,–,–,–,–,–,–,–,–,–,–
"CC[C@@H]1[C@@H]2CN(C(=O)[C@H](C(C)(C)C)NC(=O)O[C@]3(C)C[C@H]3CCCCCc3nc4ccc(OC)cc4nc3O2)[C@@H]1C(=O)N[C@]1(C(=O)NS(=O)(=O)C2(C)CC2)C[C@H]1C(F)F [Example 7, (1aR,5S,8S,9S,10R,22aR)-5-tert-butyl-N-[(1R,2R)-2-(difluoromethyl)-1-{[(1-methylcyclopropyl)sulfonyl]carbamoyl}cyclopropyl]-9-ethyl-14-methoxy-1a-methyl-3,6-dioxo-1,1a,3,4,5,6,9,10,18,19,20,21,22,22a-tetradecahydro-8H-7,10-methanocyclopropa[18,19][1,10,3,6] dioxadiazacyclononadecino[11,12-b]quinoxaline-8-carboxamide]",6.7 nM,3.8 nM,3.2 nM,4.9 nM,67 nM,20 nM,4.2 nM,0.06 nM,14 nM,3.8 nM,2.3 nM,–,–,–,–,–,–,–,–,–,–
"CC[C@@H]1[C@@H]2CN(C(=O)[C@H](C(C)(C)C)NC(=O)O[C@@]3(C(F)(F)F)CCCC3CCCCCc3nc4ccc(OC)cc4nc3O2)[C@@H]1C(=O)N[C@]1(C(=O)NS(=O)(=O)C2(C)CC2)C[C@H]1C(F)F (stereo partly drawn) [Example 10, (7S,10S,11S,12R)-7-tert-butyl-N-[(1R,2R)-2-(difluoromethyl)-1-{[(1-methylcyclopropyl)sulfonyl]carbamoyl}cyclopropyl]-11-ethyl-16-methoxy-5,8-dioxo-3aS-(trifluoromethyl)-1,2,3,3a,5,6,7,8,11,12,20,21,22,23,24,24a-hexadecahydro-10H-9,12-methanocyclopenta[18,19][1,10,3,6]dioxadiazacyclononadecino[11,12-b]quinoxaline-10-carboxamide]",–,–,–,–,–,–,–,0.52 nM,–,–,–,131 nM,22 nM,26 nM,30 nM,978 nM,493 nM,49 nM,37 nM,10 nM,–
"CC[C@@H]1[C@@H]2CN(C(=O)[C@H](C(C)(C)C)NC(=O)O[C@@]3(C(F)(F)F)CCC[C@H]3CCCCCc3nc4ccc(OC)cc4nc3O2)[C@@H]1C(=O)N[C@]1(C(=O)NS(=O)(=O)C2CC2)C[C@H]1C(F)F [Example 12, (7S,10S,11S,12R)-7-tert-butyl-N-[(1R,2R)-1-[(cyclopropylsulfonyl)carbamoyl]-2-(difluoromethyl)cyclopropyl]-11-ethyl-16-methoxy-5,8-dioxo-3aS-(trifluoromethyl)-1,2,3,3a,5,6,7,8,11,12,20,21,22,23,24,24a-hexadecahydro-10H-9,12-methanocyclopenta[18,19][1,10,3,6]dioxadiazacyclononadecino[11,12-b]quinoxaline-10-carboxamide]",–,–,–,–,–,–,–,1.2 nM,–,–,–,283 nM,18 nM,21 nM,34 nM,2010 nM,640 nM,25 nM,14 nM,5.7 nM,–
COc1ccc2nc3c(nc2c1)O[C@H]1CN(C(=O)[C@H](C(C)(C)C)NC(=O)O[C@@H]2C[C@H]2CCCCC3)[C@H](C(=O)N[C@]2(C(=O)NS(=O)(=O)C3(C)CC3)C[C@H]2C(F)F)[C@@H]1Cc1ccccc1 [Example 32],–,30 nM,30 nM,59 nM,2310 nM,–,35 nM,0.87 nM,–,–,–,–,–,–,–,–,–,–,–,–,"EC50 ([1]; Hepatitis C virus, GETYPE1A, read-out: EC50 1A R155K, transient-transfected replicon genotype 1a R155K resistant variant, 72 h): 547 nM; EC50 ([6]; Hepatitis C virus, GETYPE1B, read-out: EC50 1B D168A, transient-transfected replicon genotype 1b D168A resistant variant, 72 h): 653 nM; EC50 ([10]; Hepatitis C virus, GETYPE1A): 44 nM; EC50 ([11]; Hepatitis C virus, GETYPE1B): 14 nM"
"CC[C@@H]1[C@@H]2CN(C(=O)[C@H](C(C)(C)C)NC(=O)O[C@]3(C(F)(F)F)CCCC3CCCCCc3nc4ccc(OC)cc4nc3O2)[C@@H]1C(=O)N[C@]1(C(=O)NS(=O)(=O)C2(C)CC2)C[C@H]1C(F)F (stereo partly drawn) [Example 9, (7S,10S,11S,12R)-7-tert-butyl-N-[(1R,2R)-2-(difluoromethyl)-1-{[(1-methylcyclopropyl)sulfonyl]carbamoyl}cyclopropyl]-11-ethyl-16-methoxy-5,8-dioxo-3aR-(trifluoromethyl)-1,2,3,3a,5,6,7,8,11,12,20,21,22,23,24,24a-hexadecahydro-10H-9,12-methanocyclopenta[18,19][1,10,3,6]dioxadiazacyclononadecino[11,12-b]quinoxaline-10-carboxamide]",–,–,–,–,–,–,–,0.59 nM,–,–,–,208 nM,7.9 nM,11 nM,17 nM,1270 nM,360 nM,23 nM,12 nM,2.5 nM,–
